Values of other authors as cited in patent US20180344690A1, “Methods and Formulation for Enhancing Response to Radiotherapy” (The Board of Trustees of the Leland Stanford Junior …, priority 2017, published 2018).
Like-named read-outs stand apart in the source and are kept apart here.

What was measured:
[1] = cited from earlier work
CD34+ cells = settings: cited from earlier work
AML = settings: cited from earlier work
CD34+ cell mobilization = settings: cited from earlier work
[2] = cited from earlier work; for mean AUC from time 0 to 24 hours postdose, higher than in subjects with normal renal function: single 240 μg/kg SC
[3] = cells collected by Plerixafor plus G-CSF

c1cc(CN2CCCNCCNCCCNCC2)ccc1CN1CCCNCCNCCCNCC1 [Plerixafor]
median terminal half-life ([1]; 240 μg/kg SC with G-CSF): 4.6 h | time of peak plasma concentrations ([1]; 240 μg/kg SC with G-CSF, in most patients): 0.5 h | time of maximum fold increase in circulating cells ([1]; after Plerixafor injection, all patients): approximately 10 hours | median maximum increase in the number of circulating cells from baseline ([1]; range, 3.0- to 5.5-fold): 4.2 fold | patients achieving ≥5×10^6 CD34+ cells/kg (CD34+ cells; Plerixafor plus G-CSF compared to G-CSF alone): More patients | CD34+ cells mobilized in patients who mobilized poorly with G-CSF alone (CD34+ cells; Plerixafor plus G-CSF, nine patients, all patients): > 2×10^6 CD34+ cells/kg | median day of platelet engraftment (CD34+ cells; [3]): 17 days | median day of polymorphonuclear leukocyte (PMN) engraftment (CD34+ cells; [3]): 10 days | drug-related serious or unexpected adverse effects (CD34+ cells; human, in vivo): no drug-related serious adverse effects or unexpected adverse effects | early death due to complications from infection (AML; 2 patients): 6% | treatment failure due to persistent disease (AML; 14 patients): 44% | complete remission (CR+CRi) (AML; 32 evaluable patients at 240 μg/kg, historical CR rates 25-35%): 50% | platelet recovery (plt >50 k/mm3), median (AML; Plerixafor + MEC, range 20-40 d): 26 days | neutrophil recovery (ANC >500/mm3), median (AML; Plerixafor + MEC, range 21-37): 27 days | time of peak AML blast mobilization (AML; after administration): 6 to 8 h | One year KM estimate of overall survival (AML; in vivo): 56% | common grade 3 adverse events (AML; in vivo): cytopenias and infections | hyperleukocytosis (AML; in vivo): No evidence of hyperleukocytosis | mobilization of AML blasts into the peripheral circulation, mean increase (AML; range 0.9-7.3 fold): 2.5 fold | most frequently reported adverse effects (CD34+ cell mobilization; human, in vivo): injection site reactions, gastrointestinal (GI) effects, paresthesias, and headaches | augmentation of CD34+ cell mobilization by G-CSF (CD34+ cell mobilization; on average): 3.8 fold | safety and tolerability (CD34+ cell mobilization; single SC dose 160 or 240 μg/kg alone or added to G-CSF): generally safe and well-tolerated | effect of renal impairment on maximal plasma concentrations ([2]; human, in vivo): no effect | mean AUC from time 0 to 24 hours postdose, higher than in subjects with normal renal function ([2]; mild renal impairment): 7% | mean AUC from time 0 to 24 hours postdose, higher than in subjects with normal renal function ([2]; moderate renal impairment): 32% | mean AUC from time 0 to 24 hours postdose, higher than in subjects with normal renal function ([2]; severe renal impairment): 39% | safety profile ([2]; subjects with renal impairment vs controls): similar | Plerixafor clearance ([2]; subjects with renal impairment, positively correlated with creatinine clearance): reduced
